Experimental data as given in article PMC10244622, “Concerted suppressive effects of carisbamate, an anti-epileptic alkyl-carbamate drug, on voltage-gated Na^+ and hyperpolarization-activated cation currents” (Frontiers in Cellular Neuroscience, 2023).

Tests used:
[1] = system: T1, voltage-gated Na^+ (NaV) channels (INa in GH3 cells); experiment: whole-cell patch clamp; type: cell-based; details: transient (peak) INa(T); 30-ms step from -100 to -10 mV; Ca2+-free Tyrode, 10 mM TEA, 0.5 mM CdCl2; pH 7.4; 20-25 °C; native GH3 cells
T1 construct: gene Scn1a; native whole-cell current in GH3 pituitary cells; hNaV1.7 only docked

[2] = system: T2, HCN channel (hyperpolarization-activated cation current, Ih, in GH3 cells); experiment: whole-cell patch clamp; type: cell-based; details: Ih at end of 2-s step from -40 to -110 mV; Ca2+-free Tyrode with 1 μM TTX; pH 7.4; 20-25 °C; native GH3 cells
T2 construct: gene Hcn2; native whole-cell current in GH3 pituitary cells; homo- or mixed HCN2+HCN3; PDB 5V4S is only a docking model

`NC(=O)OC[C@@H](O)c1ccccc1Cl` [CRS, [(2S)-2-(2-chlorophenyl)-2-hydroxyethyl] carbamate] gave an IC50 [1] of 56.4 µM and an IC50 [2] of 38 µM.
